From patent US10683292B2, “Purine and 3-deazapurine analogues as choline kinase inhibitors” (NERVIANO MEDICAL SCIENCES S.R.L., priority 2016, dated 2020) come the findings set out here.

For experiment [1], the target named is T1, Δ49N-hChoKα (Homo sapiens, UniProt P35790).
T1 construct: cDNA fragment 362-1534, corresponding to aminoacids 50-457; GST (N, cleaved yes); Prescission Protease recognition site (N, cleaved yes); made in house; host or cells: Escherichia coli BL21pLysS (DE3)
The experiment can be described thus: Biochemical kinase inhibition assay (Kinase-Glo Luminescent Kinase Assay) on Δ49N-hChoKα. For orientation: Kinase-Glo reads ATP consumption through a luciferase reaction.

The target of experiment [2] is T2, hChoKβ FL (Homo sapiens, UniProt Q9Y259).
T2 construct: hChoKβ full length (FL), corresponding to aminoacids 2-395; GST (N, cleaved yes); Prescission Protease recognition site (N, cleaved yes); made in house; host or cells: Escherichia coli BL21pLysS (DE3)
The experiment can be described thus: Biochemical kinase inhibition assay (Kinase-Glo Luminescent Kinase Assay) on hChoKβ FL. As to conditions: ATP 5 μM, choline 20 μM, 60 minutes at rt; read-out: IC50 ChoKβ.
Description: The biochemical activity of compounds against Δ49N-ChoKα and ChoKβ FL were determined using the Kinase-Glo™ Luminescent Kinase Assay (Promega cat. V6711).
Compounds were 3-fold serially diluted from 10 to 0.0005 μM, then incubated for 60 minutes at rt in the presence of ATP 5 μM, choline (5 μM for ChoKα and 20 μM for ChoKβ) and enzyme in a final volume of 19 μL of kinase buffer (50 mM Hepes pH 7.5, 10 mM MgCl2, 1 mM DTT, 3 μM Na3VO4 and 0.2 mg/mL BSA). The final concentration of DMSO was 1%.
At the end of the incubation, an amount of 19 μL of KinaseGlo Reagent was added to each well to stop the reaction and after 30 minutes the luminescence signal was measured using ViewLux reader (Perkin Elmer).
The data per each molecule are analyzed by an internally customized version of the SW package “Assay Explorer” which provides sigmoidal fittings of the ten-dilution curves for IC50 determination using a 4 parameter logistic equation: y=bottom+(top−bottom)/(1+10^((log IC50−x)*slope)) where x is the logarithm of the inhibitor concentration, y is the response; y starts at bottom and goes to top with a sigmoid shape.

Setting [3] is: ATP 5 μM, choline 5 μM, 60 minutes at rt, read-out: IC50 ChoKα.

pIC50: −log10 of the molar value. Structures can show the parent of a compound that is named as a salt. Where two headings read alike, the source gives them in different places.

T1 sequence (P35790 50-457, stated change not applied): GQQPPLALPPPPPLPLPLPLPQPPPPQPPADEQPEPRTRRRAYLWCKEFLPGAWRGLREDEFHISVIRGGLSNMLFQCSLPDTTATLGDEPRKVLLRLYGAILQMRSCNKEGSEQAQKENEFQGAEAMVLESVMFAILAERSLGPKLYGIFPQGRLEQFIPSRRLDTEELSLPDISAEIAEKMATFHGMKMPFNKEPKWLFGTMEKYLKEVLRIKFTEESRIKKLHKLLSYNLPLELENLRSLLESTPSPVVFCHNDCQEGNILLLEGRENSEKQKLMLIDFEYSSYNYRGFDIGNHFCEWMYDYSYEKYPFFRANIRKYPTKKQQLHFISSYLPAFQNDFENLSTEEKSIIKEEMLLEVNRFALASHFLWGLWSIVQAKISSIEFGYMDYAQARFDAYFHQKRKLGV
T2 sequence (Q9Y259 2-395): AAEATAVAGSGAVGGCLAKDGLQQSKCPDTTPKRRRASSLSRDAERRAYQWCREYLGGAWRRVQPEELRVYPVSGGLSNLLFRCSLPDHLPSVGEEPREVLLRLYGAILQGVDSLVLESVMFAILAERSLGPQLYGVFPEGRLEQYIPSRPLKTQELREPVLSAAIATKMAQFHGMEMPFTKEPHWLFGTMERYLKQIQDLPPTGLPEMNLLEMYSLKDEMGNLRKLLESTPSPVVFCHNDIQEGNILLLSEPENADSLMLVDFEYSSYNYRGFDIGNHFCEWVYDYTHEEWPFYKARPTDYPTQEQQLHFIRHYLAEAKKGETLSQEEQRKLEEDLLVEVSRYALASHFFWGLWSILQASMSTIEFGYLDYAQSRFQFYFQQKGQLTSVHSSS

For `COc1cccc(C(=O)N[C@H]2CC[C@@H](n3cnc4c(N)nc(Cl)nc43)CC2)c1` [cpd 144, N-[cis-4-(6-amino-2-chloro-9H-purin-9-yl)cyclohexyl]-3-methoxybenzamide], the pIC50 in experiment [1] (setting [3]) was 6.47; in experiment [2], under 5.00.

With `Cc1csc(NC(=O)[C@H]2CC[C@@H](n3cnc4c(N)nc(C(N)=O)nc43)CC2)n1` [cpd 146, 6-amino-9-{cis-4-[(4-methyl-1,3-thiazol-2-yl)carbamoyl]cyclohexyl}-9H-purine-2-carboxamide], the negative logarithm of the IC50 (pIC50) was 7.14 in experiment [1] (setting [3]) and under 5.00 in experiment [2].

Regarding `Nc1nc2ccc(OC(=O)[C@H]3CC[C@@H](n4cnc5c(N)nc(Cl)nc54)CC3)cc2s1` [cpd 159, 2-amino-1,3-benzothiazol-6-yl cis-4-(6-amino-2-chloro-9H-purin-9-yl)cyclohexanecarboxylate], the pIC50 in experiment [1] (setting [3]) was 7.19; in experiment [2], 5.15.

Regarding `Nc1nc2c(OC(=O)[C@H]3CC[C@@H](n4cnc5c(N)nc(F)nc54)CC3)cccc2s1` [cpd 160, 2-amino-1,3-benzothiazol-4-yl cis-4-(6-amino-2-fluoro-9H-purin-9-yl)cyclohexanecarboxylate], the values for the pIC50 in experiment [1] (setting [3]) and in experiment [2] were 6.71 and under 5.00, respectively.

`CN(c1nc(CC(N)=O)cs1)C(=O)[C@H]1CC[C@@H](n2cnc3c(N)nc(Cl)nc32)CC1` [cpd 164, cis-4-(6-amino-2-chloro-9H-purin-9-yl)-N-[4-(2-amino-2-oxoethyl)-1,3-thiazol-2-yl]-N-methylcyclohexanecarboxamide]: the pIC50 in experiment [1] (setting [3]) was 7.15; in experiment [2], under 5.00.

Turning to `CN(C)c1ccc2nc(NC(=O)[C@H]3CC[C@@H](n4cnc5c(N)nc(Cl)nc54)CC3)sc2c1` [cpd 165, cis-4-(6-amino-2-chloro-9H-purin-9-yl)-N-[6-(dimethylamino)-1,3-benzothiazol-2-yl]cyclohexanecarboxamide], the pIC50 in experiment [1] (setting [3]) is 7.22; in experiment [2], under 5.00.

In the case of `Nc1nc(Cl)nc2c1ncn2[C@H]1CC[C@@H](C(=O)Nc2nc3cc(F)c(F)cc3s2)CC1` [cpd 168, cis-4-(6-amino-2-chloro-9H-purin-9-yl)-N-(5,6-difluoro-1,3-benzothiazol-2-yl)cyclohexanecarboxamide], the figures for the negative-log IC50 (pIC50) in experiment [1] (setting [3]) and in experiment [2] were 7.35 and under 5.00, respectively.

As for `CC(C)(C)OC(=O)N1CCc2nc(NC(=O)[C@H]3CC[C@@H](n4cnc5c(N)nc(Cl)nc54)CC3)sc2C1` [cpd 169, tert-butyl 2-({[cis-4-(6-amino-2-chloro-9H-purin-9-yl)cyclohexyl]carbonyl}amino)-6,7-dihydro[1,3]thiazolo[5,4-c]pyridine-5(4H)-carboxylate], the pIC50 in experiment [1] (setting [3]) is 7.28; in experiment [2], 5.26.

For `COc1nc(N)c2ncn([C@H]3CC[C@@H](C(=O)Nc4nc5ccc(F)cc5s4)CC3)c2n1` [cpd 170, cis-4-(6-amino-2-methoxy-9H-purin-9-yl)-N-(6-fluoro-1,3-benzothiazol-2-yl)cyclohexanecarboxamide], the pIC50 is 7.27 in experiment [1] (setting [3]) and under 5.00 in experiment [2].

For `Nc1nc(Cl)nc2c1ncn2[C@H]1CC[C@@H](C(=O)Nc2nc3cc(F)c(F)c(F)c3s2)CC1` [cpd 171, cis-4-(6-amino-2-chloro-9H-purin-9-yl)-N-(5,6,7-trifluoro-1,3-benzothiazol-2-yl)cyclohexanecarboxamide], the pIC50 in experiment [1] (setting [3]) is 6.98; in experiment [2] it was 5.24.

In the case of `COC(=O)Cc1ccc2nc(NC(=O)[C@H]3CC[C@@H](n4cnc5c(N)nc(Cl)nc54)CC3)sc2c1` [cpd 174, methyl [2-({[cis-4-(6-amino-2-chloro-9H-purin-9-yl)cyclohexyl]carbonyl}amino)-1,3-benzothiazol-6-yl]acetate], the pIC50 in experiment [1] (setting [3]) is 7.39; in experiment [2], under 5.00.

For the molecule `Nc1nc(Cl)nc2c1ncn2[C@H]1CC[C@@H](C(=O)Nc2nc3ccc(Br)cc3s2)CC1` [cpd 175, cis-4-(6-amino-2-chloro-9H-purin-9-yl)-N-(6-bromo-1,3-benzothiazol-2-yl)cyclohexanecarboxamide], the negative logarithm of the IC50 (pIC50) was 7.31 in experiment [1] (setting [3]) and under 5.00 in experiment [2].

Consider `Nc1nc(Cl)nc2c1ncn2[C@H]1CC[C@@H](C(=O)Nc2nc3ccc(CC(=O)O)cc3s2)CC1` [cpd 176, [2-({[cis-4-(6-amino-2-chloro-9H-purin-9-yl)cyclohexyl]carbonyl}amino)-1,3-benzothiazol-6-yl]acetic acid], for which the pIC50 in experiment [1] (setting [3]) was 7.47; in experiment [2], 5.40.

For `Nc1nc(Cl)nc2c1ncn2[C@H]1CC[C@@H](C(=O)Nc2nc3ccc(OC(F)F)cc3s2)CC1` [cpd 180, cis-4-(6-amino-2-chloro-9H-purin-9-yl)-N-[6-(difluoromethoxy)-1,3-benzothiazol-2-yl]cyclohexanecarboxamide], the pIC50 in experiment [1] (setting [3]) is 7.64; in experiment [2], 5.17.

`Nc1nc(Cl)nc2c1ncn2[C@H]1CC[C@@H](C(=O)Nc2nc3ccc(OC(F)(F)F)cc3s2)CC1` [cpd 181, cis-4-(6-amino-2-chloro-9H-purin-9-yl)-N-[6-(trifluoromethoxy)-1,3-benzothiazol-2-yl]cyclohexanecarboxamide]: the pIC50 in experiment [1] (setting [3]) is 7.18; in experiment [2], under 5.00.

Turning to `CC(=O)Nc1ccc2nc(NC(=O)[C@H]3CC[C@@H](n4cnc5c(N)nc(Cl)nc54)CC3)sc2c1` [cpd 183, cis-N-[6-(acetylamino)-1,3-benzothiazol-2-yl]-4-(6-amino-2-chloro-9H-purin-9-yl)cyclohexanecarboxamide], the negative logarithm of the IC50 (pIC50) in experiment [1] (setting [3]) was 7.77; in experiment [2] it was 5.70.

As for `Nc1nc(Cl)nc2c1ncn2[C@H]1CC[C@@H](C(=O)Nc2nc3cc4c(cc3s2)OCO4)CC1` [cpd 186, cis-4-(6-amino-2-chloro-9H-purin-9-yl)-N-([1,3]dioxolo[4,5-f][1,3]benzothiazol-6-yl)cyclohexanecarboxamide], the negative-log IC50 (pIC50) was 7.37 in experiment [1] (setting [3]) and 5.26 in experiment [2].

On to `CC(C)(C)OC(=O)N1[C@H]2CC[C@@H]1c1sc(NC(=O)[C@H]3CC[C@@H](n4cnc5c(N)nc(Cl)nc54)CC3)nc1C2` [cpd 187, tert-butyl (5S,8R)-2-({[cis-4-(6-amino-2-chloro-9H-purin-9-yl)cyclohexyl]carbonyl}amino)-5,6,7,8-tetrahydro-4H-5,8-epiminocyclohepta[d][1,3]thiazole-9-carboxylate], for which the pIC50 in experiment [1] was 7.54; in experiment [2], 5.25.

On to `Nc1nc(Cl)nc2c1ncn2[C@H]1CC[C@@H](C(=O)Nc2nc3c(s2)CC(F)(F)CC3)CC1` [cpd 188, cis-4-(6-amino-2-chloro-9H-purin-9-yl)-N-(6,6-difluoro-4,5,6,7-tetrahydro-1,3-benzothiazol-2-yl)cyclohexanecarboxamide], for which the negative logarithm of the IC50 (pIC50) was 8.05 in experiment [1] (setting [3]) and under 5.00 in experiment [2].

As for `Nc1nc(Cl)nc2c1ncn2[C@H]1CC[C@@H](C(=O)Nc2nc3c(s2)[C@H]2CC[C@@H](C3)N2)CC1` [cpd 189, cis-4-(6-amino-2-chloro-9H-purin-9-yl)-N-[(5S,8R)-5,6,7,8-tetrahydro-4H-5,8-epiminocyclohepta[d][1,3]thiazol-2-yl]cyclohexanecarboxamide hydrochloride], the negative-log IC50 (pIC50) in experiment [1] was 7.57; in experiment [2], under 5.00.

Turning to `Nc1nc(F)nc2c1ncn2[C@H]1CC[C@@H](C(=O)Nc2nc3c(s2)CC(F)(F)CC3)CC1` [cpd 191, cis-4-(6-amino-2-fluoro-9H-purin-9-yl)-N-(6,6-difluoro-4,5,6,7-tetrahydro-1,3-benzothiazol-2-yl)cyclohexanecarboxamide], the pIC50 in experiment [1] (setting [3]) is 7.96; in experiment [2] it was under 5.00.

On to `CC1(C)Cc2nc(NC(=O)[C@H]3CC[C@@H](n4cnc5c(N)nc(Cl)nc54)CC3)sc2CO1` [cpd 195, cis-4-(6-amino-2-chloro-9H-purin-9-yl)-N-(6,6-dimethyl-6,7-dihydro-4H-pyrano[4,3-d][1,3]thiazol-2-yl)cyclohexanecarboxamide], for which the negative-log IC50 (pIC50) in experiment [1] (setting [3]) was 7.62; in experiment [2], 5.21.

Take `NC(=O)CN1CCc2nc(NC(=O)[C@H]3CC[C@@H](n4cnc5c(N)nc(Cl)nc54)CC3)sc2C1` [cpd 196, cis-4-(6-amino-2-chloro-9H-purin-9-yl)-N-[5-(2-amino-2-oxoethyl)-4,5,6,7-tetrahydro[1,3]thiazolo[5,4-c]pyridin-2-yl]cyclohexanecarboxamide]: the pIC50 was 7.59 in experiment [1] (setting [3]) and under 5.00 in experiment [2].

For `COc1cccc(NC(=O)N[C@H]2CC[C@@H](n3cnc4c(N)nc(Cl)nc43)CC2)c1` [cpd 197, 1-[cis-4-(6-amino-2-chloro-9H-purin-9-yl)cyclohexyl]-3-(3-methoxyphenyl)urea], the pIC50 was 6.51 in experiment [1] (setting [3]) and 5.22 in experiment [2].

On to `CN1CCc2nc(NC(=O)[C@H]3CC[C@@H](n4cnc5c(N)nc(I)nc54)CC3)sc2C1` [cpd 198, cis-4-(6-amino-2-iodo-9H-purin-9-yl)-N-(5-methyl-4,5,6,7-tetrahydro[1,3]thiazolo[5,4-c]pyridin-2-yl)cyclohexanecarboxamide], for which the pIC50 in experiment [1] (setting [3]) was 7.48; in experiment [2], under 5.00.

On to `CN1CCc2nc(NC(=O)[C@H]3CC[C@@H](n4cnc5c(N)nc(C#C[Si](C)(C)C)nc54)CC3)sc2C1` [cpd 199, cis-4-{6-amino-2-[(trimethylsilyl)ethynyl]-9H-purin-9-yl}-N-(5-methyl-4,5,6,7-tetrahydro[1,3]thiazolo[5,4-c]pyridin-2-yl)cyclohexanecarboxamide], for which the pIC50 in experiment [1] is 7.17; in experiment [2] it was under 5.00.

For the molecule `Nc1nc(F)nc2c1ncn2[C@H]1CC[C@@H](C(=O)Nc2nc3c(s2)COCC3)CC1` [cpd 200, cis-4-(6-amino-2-fluoro-9H-purin-9-yl)-N-(6,7-dihydro-4H-pyrano[4,3-d][1,3]thiazol-2-yl)cyclohexanecarboxamide], the pIC50 is 7.62 in experiment [1] (setting [3]) and under 5.00 in experiment [2].

Broadly, the pIC50 is the negative decadic logarithm of the IC50, by convention in mol/L.
